From patent US7323458B1, “Dihydrobenzodiazepins and their use for treating dyslipidemia” (Merck Patent Gesellschaft Mit Beschrankter Haftung, priority 1999, dated 2008)

Key:
[1] = test system: Hep G2 cells; test: Toxicity on the cells by staining with neutral red; format: cell-based, human; details: for the concentrations studied
Protocol: In the absence of a chemical treatment, the response of the cells is 100% (0% inhibition). Under the conditions used, the effect of DMSO on the cells is negligible. The toxicity of the chemical substances on the cells is measured by the technique of staining with neutral red.
(§1) The percentage of inhibition is calculated only for the substances that show no toxicity on the Hep G2 cells.

[2] = test system: secretion of apo CIII; test: Reduction of apo CIII secretion by Hep G2 human hepatocytes in culture (ELISA); format: cell-based; details: HepG2, Hep G2 cells, 24 hours incubation, read-out: concentration which gives a 50% inhibition of the secretion of Apo CIII
Protocol: The hypolipidaemiant activity of the compounds of the invention result from their ability to reduce the secretion of apo CIII.
The Hep G2 cell line is derived from a human hepatic carcinoma (ref. ECACC No. 85011430).
The cells are cultured at 37° C., 5% CO2 in 96-well microtitration plates at a rate of 40 000 cells (200 μl) per well in a DMEM buffer, 10% foetal calf serum, 1% Glutamax+antibiotics, for 24 hours. […] The cells are incubated for 24 hours at 37° C., 5% CO2 and the medium is then removed.
The amount of apolipoprotein CIII secreted into the medium is measured by means of an assay of ELISA type. Each sample of culture medium is diluted 5-fold in a 100 mM phosphate buffer, 1% BSA. […]
The optical density is read directly using a spectrophotometer at 492 nm. The amount of Apo CIII is calculated relative to a calibration curve produced using an assayed human serum of Apo CIII and diluted under the same conditions as the Apo CIII contained in the culture medium. […]
The active substances bring about a reduction in the secretion of Apo CIII into the medium by the adherent cells. The concentration of Apo CIII is measured for each treatment and compared with the control test (no treatment).
The percentage of inhibition is calculated according to: […]
as §1

SMILES	cell toxicity [1]	IC50 [2] [µM]	melting point [°C]
C1=C(c2ccc(-c3ccccc3)cc2)N2CCc3ccccc3N=C2S1 [Example 4, 3-(biphenyl-4-yl)-5,6-dihydrothiazolo[2,3-b]-1,3-benzodiazepine]	No cell toxicity is observed	17.4	–
CCOC(=O)c1ccc(C2=CSC3=Nc4ccccc4CCN23)cc1 [Example 36, 3-[4-(ethoxycarbonyl)phenyl]-5,6-dihydro-thiazolo-[2,3-b]-1,3-benzodiazepine]	–	–	231 to 233
C1=C(c2ccc3ccccc3c2)N2CCc3ccccc3N=C2S1 [Example 47]	–	–	188.5 to 189.5
CC1=CSC2=Nc3ccccc3CCN12 [Example 50]	–	–	194 to 196
C1=C(c2ccc(Oc3ccccc3)cc2)N2CCc3ccccc3N=C2S1 [Example 67]	–	–	204 to 205
